Legend:
Type in all cases: functional
Rattus norvegicus [1] = species on record: Rattus norvegicus; experiment: Inhibition of insulin release from rat pancreatic islets incubated in the presence of glucose ([…]) at concentration of 1 uM
Rattus norvegicus [2] = species on record: Rattus norvegicus; experiment: Inhibition of insulin release from rat pancreatic islets incubated in the presence of glucose ([…]) at concentration of 10 uM
Rattus norvegicus [3] = species on record: Rattus norvegicus; experiment: Inhibition of insulin release from rat pancreatic islets incubated in the presence of glucose ([…]) at concentration of 100 uM
Rattus norvegicus [4] = species on record: Rattus norvegicus; experiment: Inhibition of insulin release from rat pancreatic islets incubated in the presence of glucose ([…]) at concentration of 50 uM
Rattus norvegicus [5] = species on record: Rattus norvegicus; experiment: Inhibition of insulin release from rat pancreatic islets incubated in the presence of glucose ([…]) at concentration of 500 uM

| Compound | Secretion (Rattus norvegicus [1]) | Secretion (Rattus norvegicus [2]) | Secretion (Rattus norvegicus [3]) | Secretion (Rattus norvegicus [4]) | Secretion (Rattus norvegicus [5]) |
| --- | --- | --- | --- | --- | --- |
| CCCCNC1=NS(=O)(=O)c2cnccc2N1 | 83.7% | 82% | 32.5% | 38.6% | 9% |
| O=S1(=O)N=C(NC2CCCCC2)Nc2ccncc21 | 74.4% | 64.4% | 18.4% | 40.5% | 6.2% |
| CC(C)C(C)NC1=NS(=O)(=O)c2cc(Cl)ccc2N1 (configuration not stated) | 88.9% | 62.7% | 6.5% | 11% | 4.6% |
| CC(C)NC1=NS(=O)(=O)c2cnccc2N1 | 110.3% | 55.3% | 18.4% | 42.5% | 8.8% |
| CCCNC1=NS(=O)(=O)c2cnccc2N1 | 97.1% | 87.3% | 21.9% | 57.7% | 9% |
| CC1=Nc2ccc(Cl)cc2S(=O)(=O)N1 [DIAZOXIDE] | 78.9% | 70% | 14% | 28.8% | 8.5% |
| CC(C)CNC1=NS(=O)(=O)c2cnccc2N1 | 84.2% | 71.8% | 10.2% | 23.4% | 9.7% |
| O=S1(=O)N=C(NN2CCOCC2)Nc2ccncc21 |  |  |  | 94.8% |  |
| O=S1(=O)N=C(NC2CCCC2)Nc2ccncc21 | 82.8% | 71.1% | 9.2% | 31.5% | 4.4% |
| CCC(C)NC1=NS(=O)(=O)c2cnccc2N1 (configuration not stated) | 97.8% | 49% | 7.1% | 9.4% | 9.4% |
| NC1=NS(=O)(=O)c2cnccc2N1 |  |  |  | 104.1% |  |
| CC(C)C(C)NC1=NS(=O)(=O)c2cnccc2N1 (configuration not stated) | 70.5% | 13.7% | 8.8% | 8.6% | 8.4% |
